Experimental data published in PMC9598656, “In Vitro Activity of Robenidine Analogues NCL259 and NCL265 against Gram-Negative Pathogens” (Antibiotics, 2022).
Peptide text beside a SMILES is read from it. * marks the point of attachment. βNA = c1ccc2cc(N*)ccc2c1

Columns and labels:
[1] = system: Wild-type (E. coli BW 25113); assay: MIC, efflux-pump wild-type; type: cell-based; settings: Escherichia coli; Wild-type (E. coli BW 25113); read-out: MIC Values
Procedure: (§1) A variety of Gram-negative reference strains (E. coli ATCC 25922, E. coli ATCC 10763, P. aeruginosa PAO1, P. aeruginosa ATCC 27853, A. baumannii ATCC 12457, A. baumannii ATCC 19606, K. pneumoniae ATCC 4352 and K. pneumoniae ATCC 33495) were used for initial screening and combination testing with PMB. The organisms were speciated using biochemical testing and MALDI-TOF mass spectrometry (Bruker, Preston, VIC, Australia). Activity testing of NCL259 and NCL265 was also carried out on 51 extraintestinal clinical E. coli isolates from companion animals, and 83 porcine and bovine enterotoxigenic E. coli (ETEC) isolates from the Australian Centre for Antimicrobial Resistance Ecology collection. E. coli wild-type (BW 25113) and its mutant BW 25113∆AcrB, in which the inner membrane component AcrB of the tripartite multidrug efflux system AcrA/AcrB/TolC has been deleted, were obtained from the bacterial collection held at Health and Biomedical Innovation, Clinical and Health Sciences, The University of South Australia. All isolates were cultured on sheep blood agar (SBA) plates at 37 °C for 18 h before being subcultured into Luria Bertaini (LB) (Oxoid, Scoresby, VIC, Australia) broth and grown to A600nm = 0.5 (equivalent to approx. 1.5 × 10^8 colony-forming units (CFU)/mL).
MICs for NCL259 and NCL265 (serial two-fold dilutions commencing at 256 µg/mL) were determined (in duplicate) in round bottom 96–well microtitre trays (Sarstedt 82.1582.001), using the broth micro-dilution method recommended by the Clinical and Laboratory Standards Institute (CLSI). We have shown previously that robenidine can chelate calcium ions from cation-adjusted Mueller-Hinton broth, which causes the loss of activity of robenidine. Therefore, LB broth was used in this study. […] The MIC for ampicillin against each isolate was determined for each test to serve as an internal quality control. The MICs of isolates were determined by visual reading and using an EnSpire Multimode Plate Reader 2300 at A600nm.

[2] = system: E. coli BW 25113 (∆AcrB); assay: MIC, efflux-pump mutant; type: cell-based, Escherichia coli; settings: Escherichia coli, read-out: MIC Values
Procedure: as §1
(§2) MICs for NCL259 and NCL265 (serial two-fold dilutions commencing at 256 µg/mL) were determined (in duplicate) in round bottom 96–well microtitre trays (Sarstedt 82.1582.001), using the broth micro-dilution method recommended by the Clinical and Laboratory Standards Institute (CLSI). We have shown previously that robenidine can chelate calcium ions from cation-adjusted Mueller-Hinton broth, which causes the loss of activity of robenidine. Therefore, LB broth was used in this study. Additionally, considering the low solubility of robenidine and its analogues in aqueous solutions, two-fold serial dilutions of stock solutions of these compounds were prepared in 100% DMSO [21]. The MIC for ampicillin against each isolate was determined for each test to serve as an internal quality control. The MICs of isolates were determined by visual reading and using an EnSpire Multimode Plate Reader 2300 at A600nm.

[3] = system: K. oxytoca 13GNB–582; assay: MIC, broth micro-dilution; type: cell-based; settings: Klebsiella oxytoca, read-out: MIC, Single Drug
Procedure: as §2
(§3) MICs of NCL259 or NCL265 in the presence of the efflux pump inhibitor, PAβN were determined using a checkerboard assay. […] Briefly, a two-fold serial dilution of each antimicrobial solution was prepared in its appropriate solvent (e.g., DMSO for robenidine analogues and Milli-Q water for PAβN), and 1 μL of each dilution was added from wells 12 to 3 (12.8–0.25 μg/mL for robenidine analogues, and 32–2 μg/mL for PAβN). Thereafter, 89 μL of LB broth was added to each well followed by the addition of 10 μL of bacterial suspension (1–5 × 10^6 CFU/mL) to each well. In this manner, the final concentration of DMSO in each well was 1%. The plate was subsequently incubated at 37 °C for 24 h. The resazurin assay was used for assessment of drug susceptibility of NCL259 and NCL265 (Supplementary Table S1–S6). The same method was also used to test the MICs of NCL259 or NCL265 in the presence of PMB against a range of Gram-negative reference strains (E. coli ATCC 25922, E. coli ATCC 10763, P. aeruginosa PAO1, P. aeruginosa ATCC 27853, A. baumannii ATCC 12457, A. baumannii ATCC 19606, K. pneumoniae ATCC 4352 and K. pneumoniae ATCC 33495). Stock solutions were prepared prior to use (25.6–0.25 mg/mL for robenidine analogues; 12.8–0.25 mg/mL for PMB). The interaction of two antibiotics was calculated as the fractional inhibitory concentration index (FICI) using the following formula:(1) FICI=MICA in combination/MICA alone+MICB in combination/MICB alone where A is NCL259 or NCL265 and B is PAβN or PMB. According to FICI calculations, the interaction between two compounds were interpreted as follows: synergistic (FICI ≤ 0.5); additive or partially synergistic (0.5 < FICI ≤ 1); indifferent (1 < FICI ≤ 4); and antagonistic (FICI > 4), as described previously. The dose reduction index (DRI) was used to describe the difference between the effective doses of NCL259 or NCL265 in combination with PMB or PAβN in comparison to their individual doses, using the following formula:(2) DRI=MICA alone/MICA in combination

[4] = system: K. pneumoniae 13GNB–550; assay: MIC, broth micro-dilution; type: cell-based; settings: Klebsiella pneumoniae, read-out: MIC, Single Drug
Procedure: as §2, §3

[5] = system: K. pneumoniae 13GNB–429; assay: MIC, broth micro-dilution; type: cell-based; settings: Klebsiella pneumoniae, read-out: MIC, Single Drug
Procedure: as §2, §3

[6] = system: K. oxytoca 13GNB–582; assay: Checkerboard assay with PAβN; type: cell-based; settings: for concentration at the marked interaction: resazurin
Procedure: as §3
(§4) Evaluation of DRI is important clinically because it can allow the dose of a potentially toxic drug to be lowered in combination with another compound without reducing the drug’s efficacy. A DRI higher than 1 is viewed as beneficial.

[7] = system: K. pneumoniae 13GNB–550; assay: Checkerboard assay with PAβN; type: cell-based, Klebsiella pneumoniae; settings: for concentration at the marked interaction: resazurin
Procedure: as §3, §4

[8] = system: K. pneumoniae 13GNB–429; assay: Checkerboard assay with PAβN; type: cell-based, Klebsiella pneumoniae; settings: for concentration at the marked interaction: resazurin
Procedure: as §3, §4

[9] = system: E. coli ATCC 10763; assay: MIC, broth micro-dilution; type: cell-based, Escherichia coli; settings: E. coli ATCC 10763
Procedure: as §1, §2

[10] = system: E. coli ATCC 25922; assay: MIC, broth micro-dilution; type: cell-based, Escherichia coli
Procedure: as §1, §2

[11] = system: A. baumannii ATCC 19606; assay: Checkerboard assay with PMB; type: cell-based, Acinetobacter baumannii
Procedure: as §3, §4

[12] = system: A. baumannii ATCC 12457; assay: Checkerboard assay with PMB; type: cell-based, Acinetobacter baumannii
Procedure: as §3, §4

[13] = system: K. pneumoniae ATCC 33495; assay: Checkerboard assay with PMB; type: cell-based, Klebsiella pneumoniae
Procedure: as §3, §4

[14] = system: K. pneumoniae ATCC 4352; assay: Checkerboard assay with PMB; type: cell-based, Klebsiella pneumoniae
Procedure: as §3, §4

[15] = system: A. baumannii ATCC 19606; assay: MIC, broth micro-dilution; type: cell-based, Acinetobacter baumannii
Procedure: as §1, §2

[16] = system: A. baumannii ATCC 12457; assay: MIC, broth micro-dilution; type: cell-based, Acinetobacter baumannii
Procedure: as §1, §2

[17] = system: P. aeruginosa ATCC 27853; assay: MIC, broth micro-dilution; type: cell-based, Pseudomonas aeruginosa
Procedure: as §1, §2

[18] = system: P. aeruginosa PAO1; assay: MIC, broth micro-dilution; type: cell-based, Pseudomonas aeruginosa
Procedure: as §1, §2

[19] = system: K. pneumoniae ATCC 33495; assay: MIC, broth micro-dilution; type: cell-based, Klebsiella pneumoniae; settings: K. pneumoniae ATCC 33495
Procedure: as §1, §2

[20] = system: K. pneumoniae ATCC 4352; assay: MIC, broth micro-dilution; type: cell-based, Klebsiella pneumoniae
Procedure: as §1, §2

[21] = system: P. aeruginosa ATCC 27853; assay: Checkerboard assay with PMB; type: cell-based, Pseudomonas aeruginosa
Procedure: as §3, §4

[22] = system: P. aeruginosa PAO1; assay: Checkerboard assay with PMB; type: cell-based, Pseudomonas aeruginosa
Procedure: as §3, §4

[23] = system: E. coli ATCC 10763; assay: Checkerboard assay with PMB; type: cell-based, Escherichia coli
Procedure: as §3, §4

[24] = system: E. coli ATCC 25922; assay: Checkerboard assay with PMB; type: cell-based, Escherichia coli
Procedure: as §3, §4

CC[C@H]1OC(=O)[C@H](C)[C@@H](O[C@H]2C[C@@](C)(OC)[C@@H](O)[C@H](C)O2)[C@H](C)[C@@H](O[C@@H]2O[C@H](C)C[C@H](N(C)C)[C@H]2O)[C@](C)(O)C[C@@H](C)C(=O)[C@H](C)[C@@H](O)[C@]1(C)O [Erythromycin, reference compound]
MIC [1]: > 128 µg/mL
MIC [2]: 2 µg/mL

NC(N)=NCCC[C@H](NC(=O)[C@@H](N)Cc1ccccc1)C(=O)Nc1ccc2ccccc2c1 [PAβN, phenylalanine-arginine-beta-naphthylamide, reference compound] (H-Phe-Arg-βNA)
MIC [3]: > 32 µg/mL
MIC [4]: > 32 µg/mL
MIC [5]: > 32 µg/mL
DRI PAβN:NCL259 ([6]; K. oxytoca 13GNB–582): 4
DRI PAβN:NCL265 ([6]; K. oxytoca 13GNB–582): 2
MIC, Combination ([6]; K. oxytoca 13GNB–582, PAβN + NCL259): 16 µg/mL
MIC, Combination ([6]; K. oxytoca 13GNB–582, PAβN + NCL265): 32 µg/mL
concentration at the marked interaction ([6]; Table S3, NCL259 + PAβN, replicate 1): 8 µg/mL
concentration at the marked interaction ([6]; Table S3, NCL259 + PAβN, replicate 2): 8 µg/mL
concentration at the marked interaction ([6]; Table S6, NCL265 + PAβN, replicate 1): 8 µg/mL
concentration at the marked interaction ([6]; Table S6, NCL265 + PAβN, replicate 2): 8 µg/mL
DRI PAβN:NCL259 ([7]; K. pneumoniae 13GNB–550): 2
DRI PAβN:NCL265 ([7]; K. pneumoniae 13GNB–550): 2
MIC, Combination ([7]; K. pneumoniae 13GNB–550, PAβN + NCL259): 32 µg/mL
MIC, Combination ([7]; K. pneumoniae 13GNB–550, PAβN + NCL265): 32 µg/mL
concentration at the marked interaction ([7]; Table S2, NCL259 + PAβN, replicate 1): 16 µg/mL
concentration at the marked interaction ([7]; Table S2, NCL259 + PAβN, replicate 2): 8 µg/mL
concentration at the marked interaction ([7]; Table S5, NCL265 + PAβN, replicate 1): 8 µg/mL
concentration at the marked interaction ([7]; Table S5, NCL265 + PAβN, replicate 2): 8 µg/mL
DRI PAβN:NCL259 ([8]; K. pneumoniae 13GNB–429): 4
DRI PAβN:NCL265 ([8]; K. pneumoniae 13GNB–429): 2
MIC, Combination ([8]; K. pneumoniae 13GNB–429, PAβN + NCL259): 16 µg/mL
MIC, Combination ([8]; K. pneumoniae 13GNB–429, PAβN + NCL265): 32 µg/mL
concentration at the marked interaction ([8]; Table S1, NCL259 + PAβN, replicate 1): 8 µg/mL
concentration at the marked interaction ([8]; Table S1, NCL259 + PAβN, replicate 2): 8 µg/mL
concentration at the marked interaction ([8]; Table S4, NCL265 + PAβN, replicate 1): 8 µg/mL
concentration at the marked interaction ([8]; Table S4, NCL265 + PAβN, replicate 2): 4 µg/mL

polymyxin B [PMB, reference compound]
MIC, Single Drug [9]: 1 µg/mL
MIC, Single Drug [10]: 0.5 µg/mL
MIC, Combination ([11]; NCL259 or NCL265 with PMB): 0.5 µg/mL
Dose Reduction Index (DRI) PMB:NCL259 ([11]; PMB + NCL259): 2
Dose Reduction Index (DRI) PMB:NCL265 ([11]; PMB + NCL265): 2
MIC, Combination ([12]; NCL259 or NCL265 with PMB): 0.5 µg/mL
Dose Reduction Index (DRI) PMB:NCL259 ([12]; PMB + NCL259): 2
Dose Reduction Index (DRI) PMB:NCL265 ([12]; PMB + NCL265): 2
Dose Reduction Index (DRI) PMB:NCL259 ([13]; PMB + NCL259): 2
Dose Reduction Index (DRI) PMB:NCL265 ([13]; PMB + NCL265): 4
MIC, Combination ([14]; NCL259 or NCL265 with PMB): 0.25 µg/mL
Dose Reduction Index (DRI) PMB:NCL259 ([14]; PMB + NCL259): 4
Dose Reduction Index (DRI) PMB:NCL265 ([14]; PMB + NCL265): 4:4
MIC, Single Drug [15]: 1 µg/mL
MIC, Single Drug [16]: 1 µg/mL
MIC, Single Drug [17]: 1 µg/mL
MIC, Single Drug [18]: 1 µg/mL
MIC, Single Drug [19]: 1 µg/mL
MIC, Single Drug [20]: 1 µg/mL
MIC, Combination ([21]; NCL259 or NCL265 with PMB): 0.5 µg/mL
Dose Reduction Index (DRI) PMB:NCL259 ([21]; PMB + NCL259): 2
Dose Reduction Index (DRI) PMB:NCL265 ([21]; PMB + NCL265): 2
MIC, Combination ([22]; NCL259 or NCL265 with PMB): 0.5 µg/mL
Dose Reduction Index (DRI) PMB:NCL259 ([22]; PMB + NCL259): 2
Dose Reduction Index (DRI) PMB:NCL265 ([22]; PMB + NCL265): 2
Dose Reduction Index (DRI) PMB:NCL259 ([23]; PMB + NCL259): 2
Dose Reduction Index (DRI) PMB:NCL265 ([23]; PMB + NCL265): 4
MIC, Combination ([24]; NCL259 or NCL265 with PMB): 0.25 µg/mL
Dose Reduction Index (DRI) PMB:NCL259 ([24]; PMB + NCL259): 2
Dose Reduction Index (DRI) PMB:NCL265 ([24]; PMB + NCL265): 2
